In patent US8216592B2, “Infection model for developing chemotherapeutic agents” (priority 2007, dated 2012):

Assays:
control strain MG1655 = assay: C. elegans infection system: control strain bacteria recovered from the nematode gut after treatment; assay type: in vivo, E. coli; settings: MG1655-fed C. elegans; 100 μg/mL gentamicin, 50 μg/mL kanamycin, 7 μg/mL heparin or 0.01% mannose in M9 buffer, 24 hours at 26° C.; P<0.001 for all compounds tested; FIG. 4
Method: (§1) Nematodes were infected with prototypical ETEC H10407 or control MG1655 strains on NGM agar. After 24 hours of infection, 30 nematodes were harvested and placed in 1 mL M9 buffer (black bars), or M9 buffer supplemented with 100 μg/mL gentamicin (white bars), 50 μg/mL kanamycin (cross-hatched bars), 7 μg/mL heparin (checkered bars), or 0.01% mannose (speckled bars), and incubated at 26° C. for 24 hours. Values represent the means of three replicate assays, and error bars indicate 1 SD.
In one embodiment, a C. elegans/ETEC infection system can be used to screen for chemotherapeutic agents able to disrupt colonization of the nematode gut. In another embodiment, a C. elegans/ETEC infection system may be used to test a range of compounds including, for purposes of example only, the bacteriocidal antibiotic gentamicin, bacteriostatic antibiotic kanamycin, heparin, which may disrupt bacterial adherence, and mannose, which inhibits type I fimbria-mediated adherence to host cells. Age-synchronized L4 nematodes were placed on NGM agar inoculated with either strain H10407 or the control MG1655. Twenty-four hours post-infection, 30 nematodes fed each strain were placed in M9 buffer or M9 buffer supplemented with the desired compounds. After an additional 24 hours of incubation at 26° C., nematodes were harvested, washed to remove exterior bacteria, pulverized and plated on selective LB agar. […]

ETEC strain H10407 = assay: C. elegans/ETEC infection system: screen of chemotherapeutic agents against colonization of the nematode gut; assay type: in vivo, E. coli; settings: ETEC H10407-infected C. elegans, 24 hours at 26° C.
Method: as §1
In one embodiment, a C. elegans/ETEC infection system can be used to screen for chemotherapeutic agents able to disrupt colonization of the nematode gut. In another embodiment, a C. elegans/ETEC infection system may be used to test a range of compounds including, for purposes of example only, the bacteriocidal antibiotic gentamicin, bacteriostatic antibiotic kanamycin, heparin, which may disrupt bacterial adherence, and mannose, which inhibits type I fimbria-mediated adherence to host cells. Age-synchronized L4 nematodes were placed on NGM agar inoculated with either strain H10407 or the control MG1655. Twenty-four hours post-infection, 30 nematodes fed each strain were placed in M9 buffer or M9 buffer supplemented with the desired compounds. After an additional 24 hours of incubation at 26° C., nematodes were harvested, washed to remove exterior bacteria, pulverized and plated on selective LB agar.
After 3 days at 26° C., L4 nematodes were removed from feeding using a platinum wire and placed on rifampin-containing NGM agar plates with pre-grown ETEC and control strains that were incubated at 37° C. overnight. Prior to seeding of C. elegans, NGM and CFA agar plates were shifted to 26° C., the temperature where they remained for the duration of the assay. For the standard plate count assay, nematodes were fed on ETEC and control strains for 24 hours. […]

[1] = test system: enteropathogenic E. coli (EPEC) strain E2348/69; assay: C. elegans infection system: EPEC bacteria recoverable from the nematode gut after treatment; assay type: in vivo; settings: EPEC E2348/69-infected C. elegans; gentamicin; data not shown
Excerpt: With continued reference to FIG. 4, there was no significant difference in the number of recoverable ETEC bacteria after treatment with any of the other compounds tested. […] The present invention therefore also includes a C. elegans small animal infection model for studying EPEC. Accordingly, a C. elegans infection system could be used to screen for potentially therapeutic chemical agents against multiple E. coli pathotypes.

Substance	reduction in the number of bacteria recovered from the nematode gut, significance (control strain MG1655)	reduction in the number of ETEC bacteria recoverable from the nematode gut (vs M9 buffer), significance (ETEC strain H10407; 100 μg/mL gentamicin, 50 μg/mL kanamycin, 7 μg/mL heparin or 0.01% mannose in M9 buffer, FIG. 4)	size of the reduction in recoverable ETEC bacteria, M9 buffer versus M9 buffer supplemented with gentamicin (ETEC strain H10407; 100 μg/mL gentamicin)	mean number of bacteria recoverable from the nematode gut after incubation (ETEC strain H10407; M9 buffer supplemented with 100 μg/mL gentamicin, FIG. 4)	reduction in the number of EPEC bacteria recoverable from the nematode gut compared to untreated EPEC-infected nematodes [1]
heparin	significant reduction	–	–	–	–
gentamicin	significant reduction	significant (P=0.004) reduction	approximately one order of magnitude	1×10^4 CFU per nematode	approximately one order of magnitude
